Read-outs that look alike come from different tables or passages of the source.
Experiments:
L929 cells = experiment: TNF-induced programmed necrosis of L929 cells (Cell Titer-Glo viability); assay type: cell-based, mouse; conditions: Mus musculus
Procedure: (§1) The biological test protocol is adopted to test effects of the compound on TNF-induced programmed necrosis of FADD (Fas-associated death domain)-deficient Jurkat cells and L929 cells.
(§2) Two different stimulation methods were used: treating with tumor necrosis factor (TNFα) alone, or treating with TNFα in combination of mitochondrial-derived cysteine-aspartate activator (SMAC) SM164. Cell viability was determined by measuring chemiluminescence values, thereby assessing the bioactivity of the compounds in inhibiting programmed cell necrosis.
(§3) Method: FADD-deficient Jurkat cells: FADD-deficient Jurkat cells (human peripheral blood leukemia T cell line) were cultured in vitro. After reaching logarithmic growth phase, cells were collected and centrifuged at 1000 rpm for 5 minutes. A supernatant was discarded. A cell concentration was adjusted to 2.5×10^5/mL, and cells were seeded into a 384-well plate at 40 µL per well. In the corresponding wells, 5 µL of SM164 (50 nM) and compounds diluted with cell culture medium were added. After pre-treatment at 37°C for 1 hour, 5 µL of TNFα (50 ng/mL) diluted with cell culture medium was added to each well as a stimulation group, while 5 µL of culture medium was added as a control group. After the plate was incubated in a cell culture incubator (37°C, 5% CO2) for 14 hours, 15 µL of Cell Titer-Glo solution was added to each well. Then, the plate was incubated at room temperature for 30 minutes. Luminescence was measured to assess intracellular ATP levels. Cell viability was set at 100% for unstimulated DMSO control wells. […] The plate was placed in a cell culture incubator (37°C, 5% CO2) and cultured for 12 hours. In the corresponding wells, 5 µL of SM164 (500 nM) and compounds diluted with cell culture medium were added. After pre-treatment at 37°C for 1 hour, 5 µL of TNFα (500 ng/mL) diluted with cell culture medium was added to the wells as a stimulation group, while 5 µL of culture medium was added as a control group. After the plate was incubated in the cell incubator (37°C, 5% CO2) for 14 hours, 15 µL of Cell Titer-Glo solution was added to each well. Then, the plate was incubated at room temperature for 30 minutes, and luminescence was measured to assess intracellular ATP levels. Cell viability was set at 100% for unstimulated DMSO control wells. EC50 values of the compounds were calculated using Prism GraphPad statistical software.

[1] = system: FADD-deficient Jurkat cells; experiment: TNF-induced programmed necrosis of FADD-deficient Jurkat cells (Cell Titer-Glo viability); assay type: cell-based, human; conditions: for EC50: Homo sapiens, Jurkat
Procedure: as §1, §2, §3

[2] = L929, stimulation with TNFα + SM164, read-out: EC50 (nM) L929 cells (mouse-derived) TNFα+ SM164
[3] = L929, stimulation with TNFα alone, read-out: EC50 (nM) L929 cells (mouse-derived) TNFα
[4] = stimulation with TNFα + SM164, read-out: EC50 (nM) FADD^-/- Jurkat cells (human-derived) TNFα+ SM164
[5] = stimulation with TNFα alone, read-out: EC50 (nM) FADD^-/- Jurkat cells (human-derived) TNFα
[6] = L929, read-out: EC50 (nM) L929 cells (mouse-derived) TNFα
[7] = read-out: EC50 (nM) FADD^-/- Jurkat cells (human-derived) TNFα

SMILES | EC50 (L929 cells; [2]) | EC50 (L929 cells; [3]) | EC50 [1, 4] | EC50 [1, 5] | further results
C[C@H](NC(=O)c1nnn(C)c1Cc1ccccc1)c1ccc(C#Cc2ccc(C(C)(C)O)cn2)cc1 [IRCBC-120] | 1.74 nM | 0.438 nM | 0.079 nM | 0.002 nM | –
C[C@H](NC(=O)c1nnn(C)c1Cc1ccccc1)c1ccc(C#Cc2ccnc(N(C)C)n2)cc1 [IRCBC-100] | 1.21 nM | 0.561 nM | 1.79 nM | 0.084 nM | –
C[C@H](NC(=O)c1nnn(C)c1Cc1ccccc1)c1ccc(C#Cc2ccnn2C)cc1 [IRCBC-003] | – | – | – | – | EC50 (L929 cells; [6]): 1.11 nM; EC50 [1, 7]: 0.095 nM
[2H]C([2H])([2H])Nc1ccc(C#Cc2ccc([C@H](C)NC(=O)c3nnn(C)c3Cc3ccccc3)cc2)nc1 [IRCBC-150] | 0.001 nM | 0.001 nM | – | – | –
C[C@H](NC(=O)c1nnn(C)c1Cc1ccccc1)c1ccc(C#Cc2csc(N(C)C)n2)cc1 [IRCBC-106] | 0.3 nM | 0.139 nM | 0.256 nM | 0.004 nM | –
C[C@H](NC(=O)c1nnn(C)c1Cc1ccccc1)c1ccc(N2CCN(C)C(=O)C2)cc1 [IRCBC-043] | – | – | 5.11 nM | 0.683 nM | EC50 (L929 cells; L929, stimulation with TNFα + SM164, µM, read-out: EC50 L929 cells (mouse-derived) TNFα+ SM164): > 1000 nM; EC50 (L929 cells; L929, stimulation with TNFα alone, µM, read-out: EC50 L929 cells (mouse-derived) TNFα): > 1000 nM
C[C@H](NC(=O)c1nnn(C)c1Cc1ccccc1)c1ccc(C#CC2CCOC2)cc1 (some centres unmarked) [IRCBC-010] | 6.71 nM | 3.27 nM | 13.4 nM | 0.481 nM | –
C[C@H](NC(=O)c1nnn(C)c1Cc1ccccc1)c1ccc(C#Cc2ccncc2C#N)cc1 [IRCBC-094] | 2.16 nM | 0.403 nM | 0.304 nM | 0.001 nM | –
C[C@H](NC(=O)c1nnn(C)c1Cc1ccc(F)cc1)c1ccc(C#Cc2ccccn2)cc1 [QY-20-53] | 0.1 nM | 0.03 nM | 0.05 nM | < 0.01 nM | programmed necroptosis inhibitory activity compared to SAR443122 ([1]; TNFα alone or TNFα + SM164, human derived FADD-deficient Jurkat cells): stronger
C[C@H](NC(=O)c1nnn(C)c1Cc1ccccc1)c1ccc(C#Cc2ccnc(N(C)C)c2)cc1 [IRCBC-101] | 2.1 nM | 0.405 nM | 0.582 nM | 0.036 nM | –
C[C@H](NC(=O)c1nnn(C)c1Cc1ccccc1)c1ccc(C#Cc2cnccn2)cc1 [IRCBC-048] | – | – | – | – | EC50 (L929 cells; [6]): 2.93 nM; EC50 [1, 7]: 0.018 nM
C[C@H](NC(=O)c1nnn(C)c1Cc1ccccc1)c1ccc(C#Cc2ncccc2N(C)C)cc1 [IRCBC-124] | 5.87 nM | 1.93 nM | 0.034 nM | – | –
C[C@H](NC(=O)c1nnn(C)c1Cc1ccccc1)c1ccc(C#Cc2ncc(N3CC(N(C)C)C3)cn2)cc1 [IRCBC-259] | 0.001 nM | – | – | – | –
C[C@H](NC(=O)c1nnn(C)c1Cc1ccccc1)c1ccc(C#Cc2ccc(N3CCOCC3)cn2)cc1 [IRCBC-105] | 0.004 nM | 0.008 nM | – | – | –
CC(C)Nc1cnc(C#Cc2ccc([C@H](C)NC(=O)c3nnn(C)c3Cc3ccccc3)cc2)nc1 [IRCBC-269] | – | – | 0.00168 nM | – | –
C[C@H](NC(=O)c1nnn(C)c1Cc1ccccc1)c1ccc(C#Cc2ncc(N)cn2)cc1 [IRCBC-161] | 0.002 nM | 0.002 nM | – | – | –
C[C@H](NC(=O)c1nnn(C)c1Cc1ccccc1)c1ccc(C#Cc2ncc3nc[nH]c3n2)cc1 [IRCBC-129] | 0.196 nM | 0.06 nM | – | – | –
C[C@H](NC(=O)c1nnn(C)c1Cc1ccccc1)c1ccc(C#Cc2ncc(N3CCOCC3)cc2C#N)cc1 [IRCBC-154] | 0.002 nM | – | – | – | –
CNc1cnc(C#Cc2ccc([C@H](C)NC(=O)c3nnn(C)c3Cc3ccccc3)cc2)nc1 [IRCBC-160] | 0.00234 nM | – | – | – | –
[2H]C([2H])([2H])Nc1cnc(C#Cc2ccc([C@H](C)NC(=O)c3nnn(C)c3Cc3ccccc3)cc2)c(C#N)c1 [IRCBC-257] | 0.00117 nM | – | – | – | –
CNc1ccc(C#Cc2ccc([C@H](C)NC(=O)c3nnn(C)c3Cc3ccccc3)cc2)nc1 [IRCBC-102] | 0.018 nM | 0.01 nM | – | – | –
[2H]C([2H])([2H])Nc1cnc(C#Cc2ccc([C@H](C)NC(=O)c3nnn(C)c3Cc3ccccc3)cc2)nc1 [IRCBC-256] | 0.00121 nM | – | – | – | –

— patent publication EP4741379A1, “CLASS OF PROGRAMMED CELL DEATH INHIBITORS, PREPARATION METHOD THEREFOR AND USE THEREOF” (SHANGHAI INSTITUTE OF ORGANIC CHEMISTRY, CHINESE ACADEMY OF …, priority 2023, dated 2025)
